pEC50: −log10 of the molar value.
Tested on: H4
Assay: Induction of autophagy in human H4 cells expressing LC3 using DAPI staining after 4 hrs by fluorescence microscopic analysis
Assay type: functional, cell-based
Details: H4, 4 h

Structure (SMILES) | pEC50
OC1(c2ccc(Cl)c(C(F)(F)F)c2)CCN(CCC=C(c2ccc(F)cc2)c2ccc(F)cc2)CC1 | 5.37
O=C1NCN(c2ccccc2)C12CCN(CCCCC(c1ccc(F)cc1)c1ccc(F)cc1)CC2 | 5.33
Cc1ccc(C2(O)CCN(CCCC(c3ccc(F)cc3)c3ccc(F)cc3)CC2)cc1 | 5.19
OCCN1CCN(CCCC(c2ccc(F)cc2)c2ccc(F)cc2)CC1 | < 4.30
O=C1NCN(c2ccccc2)C12CCN(CCCCc1ccc(F)cc1)CC2 | < 4.30
OC1(c2ccc(Cl)c(C(F)(F)F)c2)CCN(CCCCC(c2ccc(F)cc2)c2ccc(F)cc2)CC1 | 5.57
O=C1NCN(c2ccccc2)C12CCN(CCCC(c1ccc(F)cc1)c1ccc(F)cc1)CC2 [FLUSPIRILENE] | 5.62
O=C(CCC(c1ccc(F)cc1)c1ccc(F)cc1)N1CCC(O)(c2ccc(Cl)c(C(F)(F)F)c2)CC1 | < 4.30
N#CC(CCCN1CCC(O)(c2ccc(Cl)c(C(F)(F)F)c2)CC1)(c1ccccc1)c1ccccc1 | 5.49
Fc1ccc(C(CCCN2CCN(c3ccc(Cl)cc3)CC2)c2ccc(F)cc2)cc1 | < 4.30
OC1(c2ccc(C(F)(F)F)c(Cl)c2)CCN(C2c3ccccc3CCc3ccccc32)CC1 | 5.59
OC1(c2ccc(Cl)c(C(F)(F)F)c2)CCN(CCCC(c2ccc(C(F)(F)F)cc2)c2ccc(C(F)(F)F)cc2)CC1 | 6.55
O=C(CCC(c1ccc(F)cc1)c1ccc(F)cc1)N1CCC2(CC1)C(=O)NCN2c1ccccc1 | < 4.30
Cc1ccc(C2=CCN(CCCC(c3ccc(F)cc3)c3ccc(F)cc3)CC2)cc1 | < 4.30
OC1(c2ccc(Cl)c(C(F)(F)F)c2)CCN(CCCC(c2cccc(C(F)(F)F)c2)c2cccc(C(F)(F)F)c2)CC1 | 6.19
OC1(c2ccc(C(F)(F)F)c(Cl)c2)CCN(C2c3ccccc3-c3ccccc32)CC1 | 5.59
OC1(c2ccc(Cl)c(C(F)(F)F)c2)CCN(CCCC(c2ccccc2)c2ccccc2)CC1 | 5.29
CC(=O)NC1(c2ccc(C)cc2)CCN(CCCC(c2ccc(F)cc2)c2ccc(F)cc2)CC1 | 5.66
Cc1ccc(C(CCCN2CCC(O)(c3ccc(Cl)c(C(F)(F)F)c3)CC2)c2ccc(C)cc2)cc1 | 6.54
O=C1NCN(c2ccccc2)C12CCN(CCCC(c1ccc(C(F)(F)F)cc1)c1ccc(C(F)(F)F)cc1)CC2 | 5.43
O=C1NCN(c2ccccc2)C12CCN(C1c3ccccc3-c3ccccc31)CC2 | 5.10
OC1(c2ccc(Cl)c(C(F)(F)F)c2)CCN(CCC(c2ccc(F)cc2)c2ccc(F)cc2)CC1 | 5.35
OC1(c2ccc(C(F)(F)F)c(Cl)c2)CCN(C2c3ccccc3Sc3ccccc32)CC1 | 4.84

Structure (SMILES) | pEC50
COc1ccc(C(CCCN2CCC3(CC2)C(=O)NCN3c2ccccc2)c2ccc(OC)cc2)cc1 | 5.34
O=C1NCN(c2ccccc2)C12CCN(CCC(c1ccc(F)cc1)c1ccc(F)cc1)CC2 | 5.68
O=C1NCN(c2ccccc2)C12CCN(CCCC(c1ccc(Cl)cc1)c1ccc(Cl)cc1)CC2 | 5.38
OC1(c2ccc(Cl)c(C(F)(F)F)c2)CCN(CCCC(c2cccc(F)c2)c2cccc(F)c2)CC1 | 5.66
Cc1cccc(C(CCCN2CCC(O)(c3ccc(Cl)c(C(F)(F)F)c3)CC2)c2cccc(C)c2)c1 | 6.54
O=C1NCN(c2ccccc2)C12CCN(CCC=C(c1ccc(F)cc1)c1ccc(F)cc1)CC2 | 5.21
O=C1NCN(c2ccccc2)C12CCN(CCCN(c1ccccc1)c1ccccc1)CC2 | 4.60
N#CC(CCCN1CCC2(CC1)C(=O)NCN2c1ccccc1)(c1ccccc1)c1ccccc1 | 4.83
Fc1ccc(C(CCCN2CCOCC2)c2ccc(F)cc2)cc1 | < 4.30
N#CC1(c2ccccc2)CCN(CCCC(c2ccc(F)cc2)c2ccc(F)cc2)CC1 | 4.98
O=C1NCN(c2ccccc2)C12CCN(CCCC(c1ccccc1)c1ccccc1)CC2 | 4.46
O=C1NCN(c2ccccc2)C12CCN(CCCC(O)c1ccc(F)cc1)CC2 (stereo unspecified) | < 4.30
O=C1NCN(c2ccccc2)C12CCN(CC/C=C\c1ccc(F)cc1)CC2 | < 4.30
CC(=O)OC1(c2ccc(C)cc2)CCN(CCCC(c2ccc(F)cc2)c2ccc(F)cc2)CC1 | 5.36
COc1ccc(C(CCCN2CCC(O)(c3ccc(Cl)c(C(F)(F)F)c3)CC2)c2ccc(OC)cc2)cc1 | 5.92
O=C1NCN(c2ccccc2)C12CCN(C1c3ccccc3Sc3ccccc31)CC2 | < 4.30
Cc1ccc(C(CCCN2CCC3(CC2)C(=O)NCN3c2ccccc2)c2ccc(C)cc2)cc1 | 5.51
OC1(c2ccc(Cl)c(C(F)(F)F)c2)CCN(CCCC(c2ccc(F)cc2)c2ccc(F)cc2)CC1 [PENFLURIDOL] | 5.49
O=C1NCN(c2ccccc2)C12CCN(C1c3ccccc3CCc3ccccc31)CC2 | 5.29
OC1(c2ccc(Cl)c(C(F)(F)F)c2)CCN(CCCC(c2ccc(OC(F)(F)F)cc2)c2ccc(OC(F)(F)F)cc2)CC1 | 6.01
OC1(c2ccc(Cl)c(C(F)(F)F)c2)CCN(CCCC(c2ccc(Cl)cc2)c2ccc(Cl)cc2)CC1 | 5.62
CN1CCN(CCCC(c2ccc(F)cc2)c2ccc(F)cc2)CC1 | < 4.30
Cc1ccc(C2CCN(CCCC(c3ccc(F)cc3)c3ccc(F)cc3)CC2)cc1 | < 4.30

Source: ChEMBL document CHEMBL1641554, “Synthesis and SAR study of diphenylbutylpiperidines as cell autophagy inducers” (Bioorg Med Chem Lett, 2011)
